The target in assay [1] is T1, human GHS receptor (Homo sapiens, UniProt Q92847). Kind of assay: h bind IC50 (binding assay, Table 1). Conditions: for IC50: human receptor, Table 1.
The target in assay [2] is T1, human GHS receptor. Briefly: Ghrelin IP1 agonist assay (IP1 HTRF). Format: cell-based. The arrangement: expressed in transfected cells; host or cells: HEK293s. Conditions: for Emax: 2 h, read-out: h IP1 ag %; for EC50: HEK293s cells stably expressing human GHS receptor, 2 hours at 37° C., read-out: h IP1 ag EC50. Here is the method:
In HEK293s cells stably expressing human GHS receptor (In-house), agonist activity was assessed by measuring intracellular myo-Inositol 1 phosphate (IP1) using the IP1 HTRF assay kit (Cisbio International).
Cells were harvested using accutase (Sigma), spun down at 1000 rpm for 5 minutes and resuspended in stimulation buffer (as above) containing 0.02% fatty acid free BSA at a density of 1.43E6cells/ml.
Agonist effect of the compound was expressed as % maximal effect of GHRP-6 (5 μM: Bachem). Sigmoidal curves were fitted by Origin 7.5 Client and EC50 values determined.

[3] abbreviates: agonist effect as % maximal effect of GHRP-6 (5 μM).

T1 sequence (Q92847 whole entry): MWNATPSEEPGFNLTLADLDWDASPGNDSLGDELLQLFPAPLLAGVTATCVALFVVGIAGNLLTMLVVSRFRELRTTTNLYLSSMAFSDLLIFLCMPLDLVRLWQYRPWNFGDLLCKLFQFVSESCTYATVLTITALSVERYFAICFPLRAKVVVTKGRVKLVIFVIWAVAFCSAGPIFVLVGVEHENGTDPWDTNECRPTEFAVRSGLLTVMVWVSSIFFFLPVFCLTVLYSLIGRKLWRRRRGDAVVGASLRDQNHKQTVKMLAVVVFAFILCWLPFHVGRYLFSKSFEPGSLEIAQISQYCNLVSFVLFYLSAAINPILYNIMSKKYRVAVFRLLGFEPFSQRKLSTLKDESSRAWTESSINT

As to `CN1CCC[C@@H]1CS(=O)(=O)c1ccc2nc(NC(=O)NC(=O)c3ccccc3Cl)sc2c1` [Example 169, 2-Chloro-N-[[6-[[(2R)-1-methylpyrrolidin-2-yl]methylsulfonyl]benzothiazol-2-yl]carbamoyl]benzamide], the IC50 (commonly the concentration that inhibits the measured activity by half) in assay [1] was 151 nM.

Compound `C=CS(=O)(=O)c1ccc2nc(NC(=O)NC(=O)c3ccccc3Cl)sc2c1` [Example 129, 2-Chloro-N-[(6-ethenylsulfonylbenzothiazol-2-yl)carbamoyl]benzamide] came in with an IC50 in assay [1] of 219 nM.

In assay [1], `CN1CCC(S(=O)(=O)c2ccc3nc(NC(=O)NC(=O)c4ccccc4Cl)sc3c2)CC1` [Example 184, 2-Chloro-N-[[6-[(1-methyl-4-piperidyl)sulfonyl]benzothiazol-2-yl]carbamoyl]benzamide] displayed an IC50 of 33.7 nM.

Consider `COCCNCCCS(=O)(=O)c1ccc2nc(NC(=O)NC(=O)c3cc(-n4cccc4)ccc3Cl)sc2c1` [Example 76, 2-Chloro-N-[[6-[3-(2-methoxyethylamino)propylsulfonyl]benzothiazol-2-yl]carbamoyl]-5-pyrrol-1-yl-benzamide], for which, in assay [1], the IC50 is 11.4 nM.

With `CS(=O)(=O)c1ccc2nc(NC(=O)NC(=O)c3cc(F)ccc3Cl)sc2c1` [2-chloro-5-fluoro-N-[(6-methylsulfonylbenzothiazol-2-yl)carbamoyl]benzamide], the “IC50 in the binding assay” value in assay [1] is listed as “did not have IC50s in the range of about 0.001 μM to about 10 μM”.

In turn, `O=C(NC(=O)c1ccccc1Cl)Nc1nc2ccc(S(=O)(=O)CCCN3CCC(F)(F)C3)cc2s1` [Example 154, 2-Chloro-N-[[6-[3-(3,3-difluoropyrrolidin-1-yl)propylsulfonyl]benzothiazol-2-yl]carbamoyl]benzamide] gave an IC50 in assay [1] of 117 nM.

Regarding `CS(=O)(=O)c1ccc2nc(NC(=O)NC(=O)c3ccccc3-c3ccccc3F)sc2c1` [Example 125, 2-(2-Fluorophenyl)-N-[(6-methylsulfonylbenzothiazol-2-yl)carbamoyl]benzamide], the Emax in assay [2] (setting [3]) was found to be 31.8%. Further, the EC50 (in general, the midpoint of the concentration-response curve) in assay [2] turned out to be 252 nM.

`CC(C)NCCS(=O)(=O)c1ccc2nc(NC(=O)NC(=O)c3cc(-n4cccc4)ccc3Cl)sc2c1` [Example 82, 2-Chloro-N-[[6-[2-(propan-2-ylamino)ethylsulfonyl]benzothiazol-2-yl]carbamoyl]-5-pyrrol-1-yl-benzamide] displayed an IC50 in assay [1] of 1.6 nM.

In assay [1], `CN(C)C1CC(Oc2ccc(Cl)c(C(=O)NC(=O)Nc3nc4ccc(S(C)(=O)=O)cc4s3)c2)C1` (stereo not drawn) [Example 269, 2-Chloro-5-(3-dimethylaminocyclobutoxy)-N-[(6-methylsulfonyl-1,3-benzothiazol-2-yl)carbamoyl]benzamide] yielded an IC50 of 8730 nM.

For `CC(C)N1CCC(S(=O)(=O)c2ccc3nc(NC(=O)NC(=O)c4ccccc4Cl)sc3c2)CC1` [Example 174, 2-Chloro-N-[[6-[(1-propan-2-yl-4-piperidyl)sulfonyl]benzothiazol-2-yl]carbamoyl]benzamide], the IC50 in assay [1] amounted to 139 nM. Against the preceding compound, the IC50 is about 63-fold lower.

`O=C(NC(=O)c1cc(-n2cccc2)ccc1Cl)Nc1nc2ccc(S(=O)(=O)CCN3CCC3)cc2s1` [Example 81, N-[[6-[2-(Azetidin-1-yl)ethylsulfonyl]benzothiazol-2-yl]carbamoyl]-2-chloro-5-pyrrol-1-yl-benzamide] returned an IC50 in assay [1] of 2 nM.

On to `CC1(NCCS(=O)(=O)c2ccc3nc(NC(=O)NC(=O)c4ccccc4Cl)sc3c2)CC1` [Example 39, 2-Chloro-N-[[6-[2-[(1-methylcyclopropyl)amino]ethylsulfonyl]benzothiazol-2-yl]carbamoyl]benzamide], for which, in assay [1], the IC50 stood at 179 nM.

Compound `O=C(NC(=O)c1ccccc1Cl)Nc1nc2ccc(S(=O)(=O)CCCN3CCC(F)(F)CC3)cc2s1` [Example 158, 2-Chloro-N-[[6-[3-(4,4-difluoro-1-piperidyl)propylsulfonyl]benzothiazol-2-yl]carbamoyl]benzamide] showed an IC50 in assay [1] of 104 nM.

For `CN1CCN(CCS(=O)(=O)c2ccc3nc(NC(=O)NC(=O)c4ccccc4Cl)sc3c2)CC1` [Example 23, 2-Chloro-N-[[6-[2-(4-methylpiperazin-1-yl)ethylsulfonyl]benzothiazol-2-yl]carbamoyl]benzamide], in assay [1], the IC50 is 82.7 nM.

In assay [1], `CCC(C)NCCS(=O)(=O)c1ccc2nc(NC(=O)NC(=O)c3ccccc3Cl)sc2c1` (stereo not drawn) [Example 12, N-[[6-[2-(Butan-2-ylamino)ethylsulfonyl]benzothiazol-2-yl]carbamoyl]-2-chloro-benzamide] yielded a 50% inhibitory concentration (IC50) of 179 nM.

In turn, `O=C(NC(=O)c1ccccc1Cl)Nc1nc2ccc(S(=O)(=O)CCCN3CCC(O)C3)cc2s1` (stereo not drawn) [Example 160, 2-Chloro-N-[[6-[3-(3-hydroxypyrrolidin-1-yl)propylsulfonyl]benzothiazol-2-yl]carbamoyl]benzamide] had an IC50 in assay [1] of 29.6 nM.

For the compound `CCN(CC)CCS(=O)(=O)c1ccc2nc(NC(=O)NC(=O)c3ccccc3Cl)sc2c1` [Example 7, 2-Chloro-N-[[6-(2-diethylaminoethylsulfonyl)benzothiazol-2-yl]carbamoyl]benzamide], in assay [1], the IC50 came to 670 nM.

On to `CN(C)CCS(=O)(=O)c1ccc2nc(NC(=O)NC(=O)c3ccccc3Cl)sc2c1` [Example 3, 2-Chloro-N-[[6-(2-dimethylaminoethylsulfonyl)benzothiazol-2-yl]carbamoyl]benzamide], for which the IC50 in assay [1] was found to be 1120 nM.

For `CC(C)NCCS(=O)(=O)c1ccc2nc(NC(=O)NC(=O)c3cc(-n4cccc4)ccc3I)sc2c1` [Example 84, 2-Iodo-N-(6-(2-(isopropylamino)ethylsulfonyl)benzothiazol-2-ylcarbamoyl)-5-(1H-pyrrol-1-yl)benzamide], the IC50 in assay [1] was 7.1 nM.

In turn, `O=C(NC(=O)c1ccccc1Cl)Nc1nc2ccc(S(=O)(=O)CCN3CCC(O)C3)cc2s1` (stereo not drawn) [Example 5, 2-Chloro-N-[[6-[2-(3-hydroxypyrrolidin-1-yl)ethylsulfonyl]benzothiazol-2-yl]carbamoyl]benzamide] returned an IC50 in assay [1] of 403 nM.

In assay [1], `CC(C)NCCCS(=O)(=O)c1ccc2nc(NC(=O)NC(=O)c3ccccc3Cl)sc2c1` [Example 145, 2-Chloro-N-[[6-[3-(propan-2-ylamino)propylsulfonyl]benzothiazol-2-yl]carbamoyl]benzamide] came in with an IC50 of 59.8 nM.

Compound `O=C(NC(=O)c1ccccc1Cl)Nc1nc2ccc(S(=O)(=O)C3CCNCC3)cc2s1` [Example 176, 2-Chloro-N-[[6-(4-piperidylsulfonyl)benzothiazol-2-yl]carbamoyl]benzamide] registered an IC50 in assay [1] of 13.2 nM.

For `CC(NCCS(=O)(=O)c1ccc2nc(NC(=O)NC(=O)c3ccccc3Cl)sc2c1)c1ccccc1` (stereo not drawn) [Example 20, 2-Chloro-N-[[6-[2-(1-phenylethylamino)ethylsulfonyl]benzothiazol-2-yl]carbamoyl]benzamide], the IC50 in assay [1] was determined as 184 nM.

Consider `NC(=O)COCCS(=O)(=O)c1ccc2nc(NC(=O)NC(=O)c3ccccc3Cl)sc2c1` [Example 120, N-[[6-[2-(Carbamoylmethoxy)ethylsulfonyl]benzothiazol-2-yl]carbamoyl]-2-chloro-benzamide], for which, in assay [2] (setting [3]), the Emax is 29.5%. For the same compound, the EC50 in assay [2] worked out at 211 nM.

Regarding `O=C(NC(=O)c1ccccc1Cl)Nc1nc2ccc(S(=O)(=O)C3CCCN(CC4CC4)C3)cc2s1` (stereo not drawn) [Example 143, 2-Chloro-N-[[6-[[1-(cyclopropylmethyl)-3-piperidyl]sulfonyl]benzothiazol-2-yl]carbamoyl]benzamide], the IC50 in assay [1] was determined as 484 nM. In other words, the sub-micromolar range.

For the compound `O=C(NC(=O)c1cc(-n2cccc2)ccc1Cl)Nc1nc2ccc(S(=O)(=O)CCCN3CCC3)cc2s1` [Example 74, N-[[6-[3-(Azetidin-1-yl)propylsulfonyl]benzothiazol-2-yl]carbamoyl]-2-chloro-5-pyrrol-1-yl-benzamide], the IC50 in assay [1] came to 1 nM.

Turning to `O=C(NC(=O)c1ccccc1Cl)Nc1nc2ccc(S(=O)(=O)CCNCCF)cc2s1` [Example 31, 2-Chloro-N-[[6-[2-(2-fluoroethylamino)ethylsulfonyl]benzothiazol-2-yl]carbamoyl]benzamide], the IC50 in assay [1] was 54.6 nM.

In the case of `CC(C)Oc1cc(Cl)c(C(=O)NC(=O)Nc2nc3ccc(S(=O)(=O)C4CCN(C)CC4)cc3s2)cc1-n1cccn1` [Example 267, 2-chloro-4-isopropoxy-N-(6-(1-methylpiperidin-4-ylsulfonyl)benzo [d]thiazol-2-ylcarbamoyl) 5-(1H-pyrazol-1-yl)benzamide], the concentration for half-maximal inhibition (IC50) in assay [1] was 1.5 nM.

For `CC(C)N1CC(S(=O)(=O)c2ccc3nc(NC(=O)NC(=O)c4ccccc4Cl)sc3c2)C1` [Example 186, 2-Chloro-N-[[6-(1-propan-2-ylazetidin-3-yl)sulfonylbenzothiazol-2-yl]carbamoyl]benzamide], the IC50 in assay [1] was found to be 34.1 nM.

On to `CCS(=O)(=O)c1ccccc1C(=O)NC(=O)Nc1nc2ccc(S(C)(=O)=O)cc2s1` [Example 135, 2-Ethyl sulfonyl-N-[(6-methylsulfonylbenzothiazol-2-yl)carbamoyl]benzamide], for which the “h IP1 ag %” value in assay [2] (setting [3]) stood at 18.23%.

In the case of `CS(=O)(=O)c1ccc2nc(NC(=O)NC(=O)c3c(F)cccc3F)sc2c1` [Example 112, 2,6-Difluoro-N-[(6-methylsulfonylbenzothiazol-2-yl)carbamoyl]benzamide], the Emax in assay [2] (setting [3]) came out at 38.4%. For the same compound, the EC50 in assay [2] was 142 nM.

On to `CS(=O)(=O)c1ccc2nc(NC(=O)NC(=O)c3ccccc3-c3ccc(F)cc3)sc2c1` [Example 126, 2-(4-Fluorophenyl)-N-[(6-methylsulfonylbenzothiazol-2-yl)carbamoyl]benzamide], for which the Emax in assay [2] (setting [3]) came out at 38.4%. For the same compound, the EC50 in assay [2] came out at 1030 nM.

The values are drawn from patent US20120115845A1, “THERAPEUTIC AGENTS” (priority 2007, published 2012).
